Values of other authors in PMC3591511 (Expert reviews in molecular medicine, 2012).

How the values were obtained:
[1] = biological target: IL-2/IL-2Rα; conditions: antagonist of IL-2/IL-2α receptor interaction; ref [53]
[2] = system: p53-MDM2 complex

SMILES: CC(C)C[C@@H](N=C(N)N)C(=O)NCC(=O)N1CCC(c2cc(-c3ccc(OCc4ccc(C(=O)O)o4)c(Cl)c3Cl)nn2C)CC1 [SP4206]
- Ki [1]: 60 nM

SMILES: CC(C)(C)C[C@H]1N[C@@H](C(=O)NCC[C@H](O)CO)[C@H](c2cccc(Cl)c2)[C@@]12C(=O)Nc1cc(Cl)c(F)cc12.Cl [MI-219]
- inhibition of complex formation ([2]; p53-MDM2, ref [58]): ~ 5 nM

SMILES: COc1ccc(C2=N[C@@H](c3ccc(Cl)cc3)[C@@H](c3ccc(Cl)cc3)N2C(=O)N2CCNC(=O)C2)c(OC(C)C)c1 [Nutlin-3]
- activity towards the p53-MDM2 complex ([2]; mid-nanomolar, enantioselective, ref [56]): ~ 70 nM
